{"source": "patent US20030189958A1", "about": "(priority 2000, published 2003)", "key": {"Plasmopara viticola": {"tested_on": "Plasmopara viticola", "assay": "Activity against Plasmopara viticola on grape (cv Gutedel) leaf discs (Example B-2)", "details": "solo compound", "source_text": "The action to be expected E for a given active ingredient combination obeys the so-called COLBY formula and can be calculated as follows (COLBY, S. R. “Calculating synergistic and antagonistic responses of herbicide combination”. Weeds, Vol. 15, pages 20-22; 1967):\nAccording to COLBY, the expected (additive) action of active ingredients A)+B) using p+q ppm of active ingredient is [formula]\nIf the action actually observed (O) is greater than the expected action (E), then the action of the combination is super-additive, i.e. there is a synergistic effect. In mathematical terms the synergism factor SF corresponds to O/E. In the agricultural practice an SF of ≧1.2 indicates significant improvement over the purely complementary addition of activities (expected activity), while an SF of ≦0.9 in the practical application routine signals a loss of activity compared to the expected activity.\nThe efficacy of the mixtures against Plasmopara viticola may be determined in micro scale on grape leaf discs in 24-well plates (repeated on 4 discs per variation). […] The inoculation is done by spraying the sporangial suspension (70 000 sp/ml) on the lower leaf side. The infected (sporulating) area of each leaf disc is measured 7-8 days after incubation (under standard conditions in a climatic chamber +18° C., 12 hours day/night cycle) as a %-value of the total leaf disc area. The activity is calculated as a %-value relative to the disease rate on fully infected, untreated grape leave discs. The expected fungicide interactions of the components in the mixtures (E-values) are calculated according to the method of Colby."}, "Phytophthora infestans": {"tested_on": "Phytophthora infestans", "format": "in vivo", "details": "solo compound"}}, "note": "Read-outs that look alike come from different tables or passages of the source."}
{"compound": "CO/C=C(/C(=O)OC)c1ccccc1Oc1cc(Oc2ccccc2C#N)ncn1", "note": "[VIa, azoxystrobin]", "values": [{"measurement": "observed activity (O in %)", "setting": "Plasmopara viticola; 0.01 ppm", "value": 0, "unit": "%"}]}
{"compound": "N#Cc1c(Cl)c(Cl)c(Cl)c(C#N)c1Cl", "note": "[V, chlorothalonil]", "values": [{"measurement": "observed activity (O in %)", "setting": "Phytophthora infestans; 0.5 ppm", "value": 0, "unit": "%"}]}
{"compound": "COc1ccc(C(=CC(=O)N2CCOCC2)c2ccc(Cl)cc2)cc1OC", "note": "[IX, dimethomorph]", "values": [{"measurement": "observed activity (O in %)", "setting": "Plasmopara viticola; 0.01 ppm", "value": 0, "unit": "%"}, {"measurement": "observed activity (O in %)", "setting": "Plasmopara viticola; 0.05 ppm", "value": 14, "unit": "%"}, {"measurement": "observed activity (O in %)", "setting": "Plasmopara viticola; 1 ppm", "value": 62, "unit": "%"}]}
{"compound": "COCC(=O)N(c1c(C)cccc1C)[C@H](C)C(=O)OC", "note": "[IIa, metalaxyl-M]", "values": [{"measurement": "observed activity (O in %)", "setting": "Plasmopara viticola; 0.025 ppm", "value": 3, "unit": "%"}, {"measurement": "observed activity (O in %)", "setting": "Plasmopara viticola; 0.05 ppm", "value": 5, "unit": "%"}, {"measurement": "observed activity (O in %)", "setting": "Plasmopara viticola; 0.1 ppm", "value": 9, "unit": "%"}]}
{"compound": "CCNC(=O)NC(=O)C(C#N)=NOC", "note": "[XI, cymoxanil]", "values": [{"measurement": "observed activity (O in %)", "setting": "Plasmopara viticola; 0.01 ppm", "value": 0, "unit": "%"}, {"measurement": "observed activity (O in %)", "setting": "Plasmopara viticola; 0.025 ppm", "value": 8, "unit": "%"}]}
{"compound": "O=[N+]([O-])c1cc(C(F)(F)F)c(Cl)c([N+](=O)[O-])c1Nc1ncc(C(F)(F)F)cc1Cl", "note": "[III, fluazinam]", "values": [{"measurement": "observed activity (O in %)", "setting": "Phytophthora infestans; 0.025 ppm", "value": 0, "unit": "%"}, {"measurement": "observed activity (O in %)", "setting": "Phytophthora infestans; 0.05 ppm", "value": 0, "unit": "%"}, {"measurement": "observed activity (O in %)", "setting": "Phytophthora infestans; 0.5 ppm", "value": 29, "unit": "%"}]}
{"compound": "mancozeb [IV]", "values": [{"measurement": "observed activity (O in %)", "setting": "Plasmopara viticola; 0.25 ppm", "value": 3, "unit": "%"}, {"measurement": "observed activity (O in %)", "setting": "Plasmopara viticola; 0.5 ppm", "value": 15, "unit": "%"}]}
